Assay [1] has as its system DU145 BP. Put plainly: TUNEL assay of xenografted cancers. The assay is classed as in vivo, human. The settings on record: DU145 BP clone containing TMEM135-CCDC67 breakpoint; FIG. 16B, treated with Ad-TC. As for the experimental part:
(§1) FIG. 16A-B. (A) Expression of Cas9^D10A and HSV1-tk in HUH7 or HEP3B tumors treated with Ad-TC or pAD5-Cas9^D10A-gRNAMAN2A1^int13-gRNAFER^int14/pAD-MAN2A1^int13-EGFP-tk-FER^int14 (Ad-MF). Green arrows indicate unstained mouse stromal cells. (B) Genome therapy induced apoptosis of xenografted cancers that contain fusion gene breakpoints. Terminal deoxynucleotidyl transferase (TdT) dUTP Nick-End Labeling (TUNEL) assays were performed on the PC3 BP, DU145 BP, PC3 CMV, DU145 CMV, or HUH7 xenografted cancers treated with either Ad-TC or Ad-MF.
(§2) Immunohistochemistry. Immunohistochemistry was performed as described previously 6 with antibodies specific for HSV-1 TK (1:100 dilution) or for Cas9 (1:100 dilution). The antibody was omitted in negative controls. The sections were then incubated with horseradish peroxidase conjugated anti-rabbit IgG for 30 minutes at room temperature (ABC kit from Vector Labs, Inc). Slides were then exposed to a 3,3′-diaminobenzidine solution to visualize immunostaining. Counterstaining was performed by incubating the slides in 1% Hematoxylin solution for 2 minutes at room temperature. The slides were then rinsed briefly in distilled water to remove excessive staining. The procedure of TUNEL assays is similar to that previously described (13).
A general note: Xenograft models place foreign cells or tissue in a host animal.

Assay [2] has as its system PC3 BP. Put plainly: TUNEL assay of xenografted cancers. The assay is classed as in vivo, human. The note with it: PC3 BP clone containing TMEM135-CCDC67 breakpoint; FIG. 16B, treated with Ad-TC. How it is done: as §1, §2

With `Nc1nc(O)c2ncn(COC(CO)CO)c2n1` [ganciclovir], the “cell death observed by tunel staining” value in assay [1] and in assay [2] was “significant cell death” throughout.
